Like-named read-outs stand apart in the source and are kept apart here.
Assays:
[1] = test system: lower palpebral conjunctiva of rabbits, dogs, and non-human primates; settings: cited from earlier work
[2] = non-human primate, after single or multiple topical bimatoprost dosing; cited from earlier work
[3] = test system: patients with glaucoma or ocular hypertension; settings: cited from earlier work
[4] = test system: conjunctiva of patients with primary open-angle glaucoma; settings: cited from earlier work
conjunctiva of patients = assay: Phase 3 clinical studies, bimatoprost 0.03%/timolol 0.5% Combination versus bimatoprost monotherapy: conjunctival hyperaemia; format: in vivo, human
Excerpt: Approximately 60% of patients being treated for glaucoma require two or more agents (adjuvant therapy) to control the intraocular pressure. For this reason, combination therapies, in which two pharmaceutically active agents are combined in the same formulation, have been developed to decrease complexity in the treatment regimen, improve patient compliance, and to minimize the exposure to excipients with possible toxicity such as benzalkonium chloride. Currently, the most commonly prescribed adjuvant therapy includes a beta-blocker and a prostaglandin analogue. For this reason, Allergan has formulated bimatoprost 0.03% together with timolol 0.5% (Combination).

[5] = test system: palpebral conjunctiva of New Zealand White (albino) rabbits; settings: left eye, n = 16, cited from earlier work
[6] = Pooled 192024-018T & 021T (3 months), first line
[7] = Pooled 192024-018T & 021T (3 months), second line
[8] = Bimatoprost 0.001% q.i.d. one month
[9] = Bimatoprost 0.01% q.i.d. one month
[10] = Bimatoprost 0.1% q.i.d. one month

Question: For `CCNC(=O)CCC/C=C\C[C@@H]1[C@@H](/C=C/[C@@H](O)CCc2ccccc2)[C@H](O)C[C@@H]1O` [Bimatoprost, bimatoprost], which “Incidence of inflammatory infiltrates above background, lower palpebral conjunctiva: number of animals with histopathologic findings (per total number of animals)” value ([1]; Dogs, Beagle, 1 month, 0.1% q.i.d. topical) is on record?
Answer: 0 (6)

Question: And the “Incidence of inflammatory infiltrates above background, lower palpebral conjunctiva: number of animals with histopathologic findings (per total number of animals)” value ([1]; Monkeys, Cynomolgus, 12 months, 0.1% b.i.d. topical)?
Answer: 0 (60)

Question: And the “Incidence of inflammatory infiltrates above background, lower palpebral conjunctiva: number of animals with histopathologic findings (per total number of animals)” value ([1]; Rabbits, Dutch-Belted, 1 month, 0.03% b.i.d. topical)?
Answer: 0 (19)

Question: And the “Incidence of inflammatory infiltrates above background, lower palpebral conjunctiva: number of animals with histopathologic findings (per total number of animals)” value ([1]; Rabbits, Dutch-Belted, 6 months, 0.1% b.i.d. topical)?
Answer: 1 (20)

Question: What about the “Incidence of inflammatory infiltrates above background, lower palpebral conjunctiva: number of animals with histopathologic findings (per total number of animals)” value ([1]; Rabbits, New Zealand White, 1 month, 0.1% q.i.d. topical) of the same molecule?
Answer: 0 (16)

Question: And the “compound-related findings in eyes of the animal species” value ([1]; multiple subclinical, clinical, and exaggerated doses)?
Answer: No compound-related findings of corneal toxicity, discomfort or irritation, or histopathological changes

Question: What about the “in-life evaluations: treatment-related ocular surface inflammation” value ([1]; periods of up to one year exposure) of the same molecule?
Answer: no treatment-related ocular surface inflammation

Question: What about the “concentrations found in ocular surface tissues” value [2] of the same molecule?
Answer: 10^−6-10^−5 molar equivalent

Question: And the “mean laser-flare photometry readings and mean changes from baseline” value ([3]; 1 year, bimatoprost 0.03% once or twice daily, timolol maleate 0.5% twice daily, subset of 310 patients)?
Answer: no significant differences among the treatment groups

Question: What about the safety and tolerability ([3]; study extension to 2 years) of the same molecule?
Answer: safe and well-tolerated

Question: And the “eyes with signs of inflammatory cell margination or infiltration” value ([4]; bimatoprost 0.03% q.d. 2 to 4 weeks, eyes with hyperemia (2/9))?
Answer: 22%

Question: What about the “eyes with vascular congestion” value ([4]; bimatoprost 0.03% q.d. 2 to 4 weeks, eyes with hyperemia (7/9)) of the same molecule?
Answer: 78%

Question: What about the “eyes that developed conjunctival hyperemia” value ([4]; bimatoprost 0.03% q.d. for 2 to 4 weeks) of the same molecule?
Answer: Nine of 13

Question: And the “Incidence of Conjunctival hyperaemia Detected on Biomicroscopy, Biomicro ≧ +1” value (“Incidence … Biomicro ≧ +1” below) (conjunctiva of patients; 192024-026T (3 weeks))?
Answer: 18.9%

Question: What about the “Incidence of Conjunctival hyperaemia Reported as a Treatment-Related AE (Rx-rel AE)” value (“Incidence … (Rx-rel AE)” below) (conjunctiva of patients; 192024-026T (3 weeks)) of the same molecule?
Answer: 27.8%

Question: And the “Incidence … Biomicro ≧ +1” value (conjunctiva of patients; 192024-504T (3 months))?
Answer: 21.1%

Question: And the “Incidence … (Rx-rel AE)” value (conjunctiva of patients; 192024-504T (3 months))?
Answer: 29.9%

Question: And the “Incidence … Biomicro ≧ +1” value (conjunctiva of patients; [6])?
Answer: 30.9%

Question: What about the “Incidence … (Rx-rel AE)” value (conjunctiva of patients; [6]) of the same molecule?
Answer: 38.5%

Question: And the “Incidence … Biomicro ≧ +1” value (conjunctiva of patients; [7])?
Answer: 41.5%

Question: And the “Incidence … (Rx-rel AE)” value (conjunctiva of patients; [7])?
Answer: 43.4%

Question: What about the “Incidence of minimal-to-mild mononuclear cell infiltration in palpebral conjunctiva, Lower Eyelid” value (from here on “Incidence … Lower Eyelid”) [5, 8] of the same molecule?
Answer: 12 number of animals

Question: And the “Incidence of minimal-to-mild mononuclear cell infiltration in palpebral conjunctiva, Upper Eyelid” value (shortened to “Incidence … Upper Eyelid”) [5, 8]?
Answer: 4 number of animals

Question: What about the “Incidence … Lower Eyelid” value [5, 9] of the same molecule?
Answer: 13 number of animals

Question: And the “Incidence … Upper Eyelid” value [5, 9]?
Answer: 6 number of animals

Question: What about the “Incidence … Lower Eyelid” value [5, 10] of the same molecule?
Answer: 14 number of animals

Question: And the “Incidence … Upper Eyelid” value [5, 10]?
Answer: 8 number of animals
